Experimental findings from ChEMBL document CHEMBL1146722, “Synthesis and antibacterial activity of 6-O-arylpropargyl-9-oxime-11,12-carbamate ketolides” (2004) are described below.

SMILES strings stand for the structures. In brackets after ≈: the same amount, converted by molar mass.

Holding throughout (format): functional
The subject of test [1] is Streptococcus pyogenes. Kind of test: In vitro antibacterial activity against Streptococcus pyogenes PIU 2548.
The test system of test [2] is Streptococcus pneumoniae. Kind of test: In vitro antibacterial activity against Streptococcus pneumoniae 5979.
Test [3] concerns Staphylococcus aureus. Kind of test: In vitro antibacterial activity against Staphylococcus aureus NCTC 10649M strain.
The test system of test [4] is Staphylococcus aureus. Description: In vitro antibacterial activity against Staphylococcus aureus A5177 strain.
Test [5] has as its system Streptococcus pneumoniae. Kind of test: In vitro antibacterial activity against Streptococcus pneumoniae 5649.
In another test the test system is Haemophilus influenzae. Description: In vitro antibacterial activity against Haemophilus influenzae GYR1435.
Test [6] concerns Streptococcus pneumoniae. Description: In vitro antibacterial activity against Streptococcus pneumoniae ATCC 6303.
In test [7] the test system is Staphylococcus aureus. Description: In vitro antibacterial activity against Staphylococcus aureus 1775 strain.
For test [8], the system named is Streptococcus pyogenes. Kind of test: In vitro antibacterial activity against Streptococcus pyogenes EES61.
The test system of test [9] is Streptococcus pyogenes. Kind of test: In vitro antibacterial activity against Streptococcus pyogenes 930.

As to `CC[C@H]1OC(=O)[C@@](C)(F)C(=O)[C@H](C)[C@@H](OC2O[C@H](C)C[C@H](N(C)C)[C@H]2O)[C@@](C)(OCC#Cc2ccc(-c3nnn(C)n3)s2)C[C@@H](C)/C(=N\OC)[C@H](C)[C@H]2NC(=O)O[C@@]21C` (stereo not given in full), the MIC against Streptococcus pyogenes [1] was found to be 0.5 µg/mL (≈ 0.59 µM); in the test on Streptococcus pneumoniae [2] it was 0.25 µg/mL (≈ 0.295 µM); with Staphylococcus aureus [3], 1 µg/mL (≈ 1.18 µM); in the test on Staphylococcus aureus [4] it was 0.25 µg/mL (≈ 0.295 µM); against Streptococcus pneumoniae [5], 0.125 µg/mL (≈ 0.147 µM); against Haemophilus influenzae, 8 µg/mL (≈ 9.43 µM). Besides, the MIC against Streptococcus pneumoniae [6] came out at 0.008 µg/mL (≈ 0.00943 µM); in the test with Staphylococcus aureus [7], 64 µg/mL (≈ 75.5 µM); against Streptococcus pyogenes [8], 0.008 µg/mL (≈ 0.00943 µM); against Streptococcus pyogenes [9], 8 µg/mL (≈ 9.43 µM).

Turning to `CC[C@H]1OC(=O)[C@H](C)C(=O)[C@H](C)[C@@H](OC2O[C@H](C)C[C@H](N(C)C)[C@H]2O)[C@@](C)(OCC#Cc2cnc3ccccc3c2)C[C@@H](C)/C(=N\OC)[C@H](C)[C@H]2NC(=O)O[C@@]21C` (stereo not given in full), the MIC worked out at 0.125 µg/mL (≈ 0.158 µM) in the test with Streptococcus pyogenes [1]; 0.25 µg/mL (≈ 0.315 µM) against Streptococcus pneumoniae [2]; 1 µg/mL (≈ 1.26 µM) against Staphylococcus aureus [3]; 0.25 µg/mL (≈ 0.315 µM) against Staphylococcus aureus [4]; 0.125 µg/mL (≈ 0.158 µM) in the test on Streptococcus pneumoniae [5]; 4 µg/mL (≈ 5.04 µM) against Haemophilus influenzae. Also, the MIC in the test on Streptococcus pneumoniae [6] turned out to be 0.008 µg/mL (≈ 0.0101 µM); against Staphylococcus aureus [7], 128 µg/mL (≈ 161 µM); with Streptococcus pyogenes [8], 0.008 µg/mL (≈ 0.0101 µM); in the test on Streptococcus pyogenes [9], 1 µg/mL (≈ 1.26 µM).

On to `CC[C@H]1OC(=O)[C@H](C)C(=O)[C@H](C)[C@@H](OC2O[C@H](C)C[C@H](N(C)C)[C@H]2O)[C@@](C)(OCC#Cc2cnc3cccnc3c2)C[C@@H](C)/C(=N\OC)[C@H](C)[C@H]2NC(=O)O[C@@]21C` (stereo not given in full), for which the MIC against Streptococcus pyogenes [1] was determined as 0.06 µg/mL (≈ 0.0756 µM); against Streptococcus pneumoniae [2] it was 1 µg/mL (≈ 1.26 µM); in the test on Staphylococcus aureus [3], 1 µg/mL (≈ 1.26 µM); with Staphylococcus aureus [4], 0.008 µg/mL (≈ 0.0101 µM); with Streptococcus pneumoniae [5], 0.03 µg/mL (≈ 0.0378 µM); with Haemophilus influenzae, 2 µg/mL (≈ 2.52 µM). Also, the MIC in the test on Streptococcus pneumoniae [6] is 0.008 µg/mL (≈ 0.0101 µM); in the test on Staphylococcus aureus [7] it was above 128 µg/mL; with Streptococcus pyogenes [8], 0.008 µg/mL (≈ 0.0101 µM); with Streptococcus pyogenes [9] it was 0.5 µg/mL (≈ 0.63 µM).

Take `CC[C@H]1OC(=O)[C@H](C)[C@@H](O[C@H]2C[C@@](C)(OC)[C@@H](O)[C@H](C)O2)[C@H](C)[C@@H](O[C@@H]2O[C@H](C)C[C@H](N(C)C)[C@H]2O)[C@](C)(O)C[C@@H](C)C(=O)[C@H](C)[C@@H](O)[C@]1(C)O` [ERYTHROMYCIN]: the MIC was 8 µg/mL (≈ 10.9 µM) in the test with Streptococcus pyogenes [1]; above 128 µg/mL in the test with Streptococcus pneumoniae [2]; 0.5 µg/mL (≈ 0.681 µM) with Staphylococcus aureus [3]; above 128 µg/mL in the test on Staphylococcus aureus [4]; 4 µg/mL (≈ 5.45 µM) in the test on Streptococcus pneumoniae [5]; 4 µg/mL (≈ 5.45 µM) against Haemophilus influenzae. Also, the MIC is 0.015 µg/mL (≈ 0.0204 µM) in the test on Streptococcus pneumoniae [6], above 128 µg/mL against Staphylococcus aureus [7], 0.015 µg/mL (≈ 0.0204 µM) with Streptococcus pyogenes [8] and above 128 µg/mL in the test on Streptococcus pyogenes [9].

As for `CC[C@H]1OC(=O)[C@H](C)C(=O)[C@H](C)[C@@H](O[C@@H]2O[C@H](C)C[C@H](N(C)C)[C@H]2O)[C@](C)(OC)C[C@@H](C)C(=O)[C@H](C)[C@H]2N(CCCCn3cnc(-c4cccnc4)c3)C(=O)O[C@]12C` [TELITHROMYCIN], the MIC in the test with Streptococcus pyogenes [1] came to 2 µg/mL (≈ 2.46 µM); in the test with Streptococcus pneumoniae [2], 8 µg/mL (≈ 9.85 µM); with Staphylococcus aureus [3], 0.1 µg/mL (≈ 0.123 µM); with Staphylococcus aureus [4], 0.1 µg/mL (≈ 0.123 µM); in the test with Streptococcus pneumoniae [5], 0.5 µg/mL (≈ 0.616 µM); with Haemophilus influenzae, 2 µg/mL (≈ 2.46 µM). Further, the MIC is 0.004 µg/mL (≈ 0.00493 µM) in the test with Streptococcus pneumoniae [6], above 100 µg/mL in the test with Staphylococcus aureus [7], 0.004 µg/mL (≈ 0.00493 µM) in the test with Streptococcus pyogenes [8] and 8 µg/mL (≈ 9.85 µM) against Streptococcus pyogenes [9].

As to `CC[C@H]1OC(=O)[C@@](C)(F)C(=O)[C@H](C)[C@@H](OC2O[C@H](C)C[C@H](N(C)C)[C@H]2O)[C@@](C)(OCC#Cc2cnc3ccccc3c2)C[C@@H](C)/C(=N\OC)[C@H](C)[C@H]2NC(=O)O[C@@]21C` (stereo not given in full), the MIC against Streptococcus pyogenes [1] is 0.25 µg/mL (≈ 0.308 µM); against Streptococcus pneumoniae [2] it was 0.125 µg/mL (≈ 0.154 µM); against Staphylococcus aureus [3], 0.5 µg/mL (≈ 0.617 µM); in the test on Staphylococcus aureus [4], 0.25 µg/mL (≈ 0.308 µM); in the test with Streptococcus pneumoniae [5], 0.125 µg/mL (≈ 0.154 µM); against Haemophilus influenzae it was 4 µg/mL (≈ 4.93 µM). Also, the MIC in the test with Streptococcus pneumoniae [6] is 0.008 µg/mL (≈ 0.00986 µM); in the test with Staphylococcus aureus [7] it was 64 µg/mL (≈ 78.9 µM); against Streptococcus pyogenes [8], 0.008 µg/mL (≈ 0.00986 µM); against Streptococcus pyogenes [9], 0.5 µg/mL (≈ 0.617 µM).

Consider `CC[C@H]1OC(=O)[C@H](C)C(=O)[C@H](C)[C@@H](OC2O[C@H](C)C[C@H](N(C)C)[C@H]2O)[C@@](C)(OCC#Cc2ccc(-c3nnn(C)n3)s2)C[C@@H](C)/C(=N\OC)[C@H](C)[C@H]2NC(=O)O[C@@]21C` (stereo not given in full), for which the MIC stood at 0.125 µg/mL (≈ 0.151 µM) against Streptococcus pyogenes [1]; 0.5 µg/mL (≈ 0.602 µM) against Streptococcus pneumoniae [2]; 0.25 µg/mL (≈ 0.301 µM) in the test on Staphylococcus aureus [3]; 0.008 µg/mL (≈ 0.00964 µM) against Staphylococcus aureus [4]; 0.06 µg/mL (≈ 0.0723 µM) in the test with Streptococcus pneumoniae [5]; 4 µg/mL (≈ 4.82 µM) in the test on Haemophilus influenzae. In addition, the MIC came out at 0.008 µg/mL (≈ 0.00964 µM) in the test with Streptococcus pneumoniae [6], 128 µg/mL (≈ 154 µM) against Staphylococcus aureus [7], 0.008 µg/mL (≈ 0.00964 µM) with Streptococcus pyogenes [8] and 32 µg/mL (≈ 38.6 µM) in the test with Streptococcus pyogenes [9].

Turning to `CC[C@H]1OC(=O)[C@H](C)C(=O)[C@H](C)[C@@H](OC2O[C@H](C)C[C@H](N(C)C)[C@H]2O)[C@@](C)(OCC#Cc2ccc3nccnc3c2)C[C@@H](C)/C(=N\OC)[C@H](C)[C@H]2NC(=O)O[C@@]21C` (stereo not given in full), the MIC against Streptococcus pyogenes [1] came out at 0.5 µg/mL (≈ 0.63 µM); in the test with Streptococcus pneumoniae [2], 0.25 µg/mL (≈ 0.315 µM); with Staphylococcus aureus [3], 0.25 µg/mL (≈ 0.315 µM); with Staphylococcus aureus [4], 0.008 µg/mL (≈ 0.0101 µM); against Streptococcus pneumoniae [5], 0.125 µg/mL (≈ 0.157 µM); against Haemophilus influenzae, 8 µg/mL (≈ 10.1 µM). The MIC in the test with Streptococcus pneumoniae [6] is 0.008 µg/mL (≈ 0.0101 µM); against Staphylococcus aureus [7], above 128 µg/mL; against Streptococcus pyogenes [8], 0.008 µg/mL (≈ 0.0101 µM); against Streptococcus pyogenes [9], 8 µg/mL (≈ 10.1 µM).

Consider `CC[C@H]1OC(=O)[C@H](C)C(=O)[C@H](C)[C@@H](OC2O[C@H](C)C[C@H](N(C)C)[C@H]2O)[C@@](C)(OCC#Cc2ccc(-c3ccccn3)s2)C[C@@H](C)/C(=N\OC)[C@H](C)[C@H]2NC(=O)O[C@@]21C` (stereo not given in full), for which the MIC came to 0.03 µg/mL (≈ 0.0364 µM) against Streptococcus pyogenes [1]; 0.008 µg/mL (≈ 0.0097 µM) in the test with Streptococcus pneumoniae [2]; 0.25 µg/mL (≈ 0.303 µM) with Staphylococcus aureus [3]; 0.008 µg/mL (≈ 0.0097 µM) with Staphylococcus aureus [4]; 0.008 µg/mL (≈ 0.0097 µM) against Streptococcus pneumoniae [5]; 4 µg/mL (≈ 4.85 µM) against Haemophilus influenzae. For the same compound, the MIC against Streptococcus pneumoniae [6] came out at 0.008 µg/mL (≈ 0.0097 µM); with Staphylococcus aureus [7], 64 µg/mL (≈ 77.6 µM); with Streptococcus pyogenes [8], 0.008 µg/mL (≈ 0.0097 µM); with Streptococcus pyogenes [9] it was 16 µg/mL (≈ 19.4 µM).
